Laboratory results: ChEMBL document CHEMBL5325409, “Exploiting HOPNO-dicopper center interaction to development of inhibitors for human tyrosinase” (Eur J Med Chem, 2023)

Key:
Tyrosinase [1] = molecular target: T1, Tyrosinase (Streptomyces antibioticus, UniProt P07524)
T1 sequence (P07524 whole entry): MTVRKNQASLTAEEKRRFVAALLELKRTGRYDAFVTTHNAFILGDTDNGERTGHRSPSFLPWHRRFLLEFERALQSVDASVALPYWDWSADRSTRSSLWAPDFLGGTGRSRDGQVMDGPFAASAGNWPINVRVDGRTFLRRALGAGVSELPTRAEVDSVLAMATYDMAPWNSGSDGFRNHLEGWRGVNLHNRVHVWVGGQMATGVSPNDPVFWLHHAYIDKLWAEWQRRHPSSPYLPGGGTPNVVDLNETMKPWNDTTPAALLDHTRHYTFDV
Description: Competitive inhibition of Streptomyces antibioticus tyrosinase using L-DOPA as substrate by Michelis-Menten based analysis

Mushroom tyrosinase = Mushroom tyrosinase (Agaricus bisporus, UniProt O42713+Q00024+C7FF04+C7FF05)
Description: Competitive inhibition of Agaricus bisporus tyrosinase using L-DOPA as substrate by Michelis-Menten based analysis

Tyrosinase [2] = molecular target: T2, Tyrosinase (Mus musculus, UniProt P11344)
T2 sequence (P11344 whole entry): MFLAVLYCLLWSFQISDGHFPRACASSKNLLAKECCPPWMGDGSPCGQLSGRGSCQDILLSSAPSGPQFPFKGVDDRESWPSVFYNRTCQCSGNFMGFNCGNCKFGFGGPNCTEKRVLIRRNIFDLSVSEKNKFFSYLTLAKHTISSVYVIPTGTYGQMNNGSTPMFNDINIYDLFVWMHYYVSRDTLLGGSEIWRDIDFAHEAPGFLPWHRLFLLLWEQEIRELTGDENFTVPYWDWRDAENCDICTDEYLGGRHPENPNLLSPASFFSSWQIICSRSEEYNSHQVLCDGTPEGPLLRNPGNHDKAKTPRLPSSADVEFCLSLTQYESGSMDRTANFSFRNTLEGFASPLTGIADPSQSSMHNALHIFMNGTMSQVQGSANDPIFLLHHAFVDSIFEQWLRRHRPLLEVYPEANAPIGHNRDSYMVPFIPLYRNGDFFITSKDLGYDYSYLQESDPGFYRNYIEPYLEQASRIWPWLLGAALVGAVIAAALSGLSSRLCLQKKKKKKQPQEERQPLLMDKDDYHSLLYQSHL
Description: Inhibition of tyrosinase in mouse B16-F10 cells assessed as inhibition of melanin production measured after 72 hrs

Tyrosinase [3] = molecular target: T3, Tyrosinase (Homo sapiens, UniProt P14679)
T3 sequence (P14679 whole entry): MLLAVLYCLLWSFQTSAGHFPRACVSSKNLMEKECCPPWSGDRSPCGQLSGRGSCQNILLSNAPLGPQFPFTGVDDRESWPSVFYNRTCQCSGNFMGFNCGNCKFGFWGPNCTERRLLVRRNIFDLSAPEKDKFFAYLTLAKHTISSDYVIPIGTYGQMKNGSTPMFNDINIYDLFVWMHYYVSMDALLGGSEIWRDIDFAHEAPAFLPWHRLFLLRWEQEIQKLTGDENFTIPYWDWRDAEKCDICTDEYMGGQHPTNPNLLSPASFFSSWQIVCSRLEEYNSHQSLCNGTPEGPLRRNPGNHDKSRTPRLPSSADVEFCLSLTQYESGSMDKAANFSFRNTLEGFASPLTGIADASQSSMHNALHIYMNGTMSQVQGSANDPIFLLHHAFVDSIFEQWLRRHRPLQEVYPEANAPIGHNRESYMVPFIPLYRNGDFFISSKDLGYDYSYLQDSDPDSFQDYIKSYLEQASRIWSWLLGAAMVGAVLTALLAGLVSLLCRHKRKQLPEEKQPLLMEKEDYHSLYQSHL
Description: Competitive inhibition of human recombinant tyrosinase expressed in Sf9 cells using L-DOPA as substrate by Michelis-Menten based analysis

Tyrosinase [4] = molecular target: T3, Tyrosinase; format: cell-based, MNT-1
Description: Inhibition of tyrosinase in human MNT-1 cells assessed as inhibition of melanin production measured after 96 hrs

Tyrosinase [5] = molecular target: T3, Tyrosinase; format: subcellular, MNT-1, Lysates

| Compound | Ki (Tyrosinase [1]) | Ki (Mushroom tyrosinase) | IC50 (Tyrosinase [2]) | Ki (Tyrosinase [3]) | IC50 (Tyrosinase [4]) | IC50 (Tyrosinase [5]) |
| --- | --- | --- | --- | --- | --- | --- |
| O=c1ccc(CO)cn1O | 4.1 µM | 1.2 µM | 61.2 µM | 7.5 µM |  |  |
| Cl.N[C@H](Cc1ccc(=O)n(O)c1)C(=O)O | 16 µM | 12.8 µM |  | 76 µM | > 400 µM | 277 µM |
| Cl.N[C@@H](Cc1ccc(=O)n(O)c1)C(=O)O | 39 µM | 12.5 µM |  | 8 µM | > 400 µM | 73.6 µM |
| Cl.NC(Cc1ccc(=O)n(O)c1)C(=O)O (racemic) | 42 µM | 1.2 µM | 10 µM | 6 µM | > 400 µM | 90 µM |
